Experiments:
[1] = test system: 4T1 syngeneic orthotopic breast carcinoma; assay: Confocal microscopy of 4T1 tumor slices after i.v. injection of dual-labeled liposomes; assay type: in vivo, mice; settings: for extravasation and migration area in tumor: 24 h after i.v., 290 nm EPC/DSPE-PEG2000 liposomes with 0.2% DiD and Cy3-DSPE
Protocol: Lipids at the following molar ratios: HSPC/Chol/DSPE-PEG2000 (57/38/5) or EPC/DSPE-PEG2000 (95:5) with addition of 0.2% ICL and/or 0.2% FPL were mixed and dried under a nitrogen stream. The dry lipid cake was resuspended in PBS for a total lipid concentration of 20 mM, then incubated at 60° C. for 30 minutes. The solution was then vortexed for 2 minutes and bath sonicated. Liposomes were extruded by a syringe extruder (Avestin, Ottawa, Canada) through Whatman Nucleopore Track-Etch Membranes (200 nm pore size, 15 times). HSPC-based liposomes were extruded at 60° C., EPC-based liposomes were extruded at room temperature. Size and zeta potential were measured at room temperature in the presence of 1% phosphate-buffered saline using Zetasizer Nano (Malvern, UK). Liposomes were stored at 4° C. at a final concentration of 10 mM (total lipid) for a maximum period of 8 weeks before use.
4T1 cell line was purchased from the ATCC and verified using a sequencing core. GL261 cells were obtained from the National Cancer Institute (NCI), and CT2A cells were a gift from Dr. Tom Seyfried (Boston College). LY2 cells were from Dr. Sana Karam, University of Colorado Anschutz Medical campus. Cells were grown at 37° C. in RPMI 1640 medium containing 10% heat-inactivated fetal bovine serum, 10 mM HEPES, 100 U/ml penicillin, and […] streptomycin (all from Corning Inc. New York, NY, USA). BALB/c mice were bred in-house. Mice of 8-10 weeks of age (females) were implanted with 0.5×10^6 cells into the mammary fat pad (4T1) or subcutaneously in the jaw region (LY2) and used for experiments 1 week later when tumors reached ˜200-300 mm^3. For brain tumors, C57BL/6 mice (6-8 weeks old) were implanted with a total 1×10^5 GL261 or CT-2A cells per animal using an established protocol. To determine the distribution of liposomes in tumors and organs, liposomes were injected with 50 μl of 10 mM total lipid intravenously. Blood was collected via periorbital plexus using heparin glass capillaries, and the plasma was separated by centrifugation at 500 g for 5 min. In some experiments, mice were preinjected before dissection with 50 μl of FITC-tomato lectin (1 mg/ml) and 50 μl Hoechst 33324 (2 mg/ml) to visualize the vasculature and the nuclei. Mice were sacrificed with carbon dioxide, followed by cardiac perfusion with PBS through the left ventricle.
Nikon Eclipse AR1HD inverted confocal microscope with 405 nm, 488 nm, 561 nm, and 640 nm excitation lasers and corresponding emission filters was used. For high magnification imaging, liposomes were diluted 1:200 in PBS, mixed with glycerol at 1:1 ratio and 2 μl were placed on slide. For liposomes in plasma, the samples were diluted 1:20 and mixed with glycerol. The preparations in glycerol were spread under a coverslip and imaged under Apo60 or Apo100 Oil objective at 2048×2048 resolution. For tumor imaging, tumors or whole brains were frozen on dry ice and sliced with a blade into 1-2 mm thick slices. The slices were placed on a glass slide and imaged using Plan Apo 10 objective. Channels' voltage and laser intensity were adjusted using the dual labeled liposomes placed on a slide and imaged under the same magnification. These parameters were calibrated before each imaging session using the batch of liposomes used in that experiment. For quantification, multiple random image areas from different slices of the tumor (both periphery and center) were acquired at 512×512 resolution. Images were quantified with Fiji using customized macros. Briefly, 8-bit gray image stacks were thresholded for fluorescence in the Cy3 and Cy5 channels and the percentages of binary (positive) areas were calculated using the “Measure” function. All the data were plotted with Prism version 8.3.0 (GraphPad, San Diego, CA).

[2] = test system: LY2 head and neck cancer; assay: Confocal microscopy of LY2 tumors after injection of dual-labeled liposomes; assay type: in vivo, mice; settings: 24 h; DiI/Cy5-DSPE labeled EPC/DSPE-PEG2000 liposomes
Protocol: (§1) 4T1 cell line was purchased from the ATCC and verified using a sequencing core. GL261 cells were obtained from the National Cancer Institute (NCI), and CT2A cells were a gift from Dr. Tom Seyfried (Boston College). LY2 cells were from Dr. Sana Karam, University of Colorado Anschutz Medical campus. Cells were grown at 37° C. in RPMI 1640 medium containing 10% heat-inactivated fetal bovine serum, 10 mM HEPES, 100 U/ml penicillin, and […] streptomycin (all from Corning Inc. New York, NY, USA). BALB/c mice were bred in-house. Mice of 8-10 weeks of age (females) were implanted with 0.5×10^6 cells into the mammary fat pad (4T1) or subcutaneously in the jaw region (LY2) and used for experiments 1 week later when tumors reached ˜200-300 mm^3. […]
(§2) Nikon Eclipse AR1HD inverted confocal microscope with 405 nm, 488 nm, 561 nm, and 640 nm excitation lasers and corresponding emission filters was used. […] For quantification, multiple random image areas from different slices of the tumor (both periphery and center) were acquired at 512×512 resolution. Images were quantified with Fiji using customized macros. Briefly, 8-bit gray image stacks were thresholded for fluorescence in the Cy3 and Cy5 channels and the percentages of binary (positive) areas were calculated using the “Measure” function. […]

[3] = test system: syngeneic intracranial GL261 glioma; assay: Confocal microscopy of brain slices of GL261 glioma mice after i.v. dual-labeled liposomes; assay type: in vivo; settings: 48 h post-injection, EPC/DSPE-PEG2000 liposomes, 0.2% DiI and 0.2% Cy5-DSPE
Protocol: as §1, §2

[4] = Plasma fluorescence elimination profile after liposome injection; assay type: in vivo, mice; settings: 24 h post-injection; DiI/Cy5-DSPE liposomes
Protocol: as §1, with “mm^3. For brain tumors, C57BL/6 mice (6-8 weeks old) were implanted with a total 1×10^5 GL261 or CT-2A cells per animal using an established protocol.” for “mm^3.”
Tumors and livers were placed in a 24-well plate and scanned as described above. […] Mean fluorescence was determined from 8-bit TIFF images using Fiji software by drawing a region of interest around the tumors and using the “Measure” function to determine mean gray values. […] For plasma fluorescence profile, plasma collected at different time points was serially diluted, dotted on a nitrocellulose membrane, scanned as above, and the mean fluorescence of dots was plotted versus time with Prism.

[5] = Ex vivo fluorescence imaging of excised tumors and livers; assay type: in vivo, mice
Protocol: Tumors and livers were placed in a 24-well plate and scanned as described above. To match the intensity of the channels, the same liposomes used for injection were diluted (1:10), dotted on a 0.45 μm nitrocellulose membrane, and scanned together with the samples. Mean fluorescence was determined from 8-bit TIFF images using Fiji software by drawing a region of interest around the tumors and using the “Measure” function to determine mean gray values. Such measurement is independent of the organ cross-section area. The mean gray values of non-injected tumors were subtracted from the measurements. For plasma fluorescence profile, plasma collected at different time points was serially diluted, dotted on a nitrocellulose membrane, scanned as above, and the mean fluorescence of dots was plotted versus time with Prism.

[6] = Lipid extraction of tumors and organs, dye biodistribution; assay type: in vivo, mice; settings: 48 h post-injection
Protocol: For extraction using a modified Bligh-Dyer method, 50-100 mg tissue was homogenized as described above, 10 parts of chloroform/methanol (2:1) were added to the homogenate (considering that tissue weight is 1 part), and the samples were mixed at 1400 rpm for 2 h at room temperature on Eppendorf Thermomixer. The tubes were centrifuged at 500 g for 10 min. The organic phase (bottom, approximately 80% of the added amount) was carefully collected, dotted on a PVDF membrane and scanned for DiI and Cy5 fluorescence as described above. Different dilutions of liposomes (standard curve) were scanned together with the samples. The percentage of the injected DiI and Cy5 in the extract was calculated from the standard curve and divided by tissue weight. The fluorescence of control non-injected organs was subtracted from that of injected organs. For TLC analysis, the mobile phase consisted of chloroform: methanol (9:1) with 1% trifluoroacetic acid and the samples were run on TLC Silica Gel 60 F254 plates (EMD Millipore).

[7] = Skin extravasation and accumulation of liposomal lipid dyes; assay type: in vivo, Mouse
Protocol: FIG. 40B: Liposomes were formulated with Cy3-DSPE, LR-DOPE or DiI. FIG. 40C: Mouse skin was excised 4 days after injection and the microscopic areas of accumulation and extravasation were counted. […] FIG. 40D-40F: circulation and skin accumulation of DiD and Cy5-DSPE liposomes (n=3 per group, 9 different skin areas pooled). FIG. 40G-40H: mixed DiI/Cy5-DSPE liposomes colocalize in skin blood vessels at 1 h, and colocalize in plasma (1000× magnification zoomed). Arrows in FIG. 40G point to DiI extravasation. […] Similar results were observed when mixed Cy3-DSPE/DiD liposomes were used (lower panel).

[8] = test system: MOLM13 leukemic cells; assay: MTT cytotoxicity assay in MOLM13 leukemic cells; assay type: cell-based; settings: Homo sapiens, MOLM-13, 48 h
[9] = test system: human glioma cell lines; settings: cited from earlier work

In the case of `CCCCCCCCCCCCCCCCCC(=O)OC[C@H](COP(=O)(O)OCCNC(=O)CCCCCN1/C(=C/C=C/C2=[N+](C)c3ccccc3C2(C)C)C(C)(C)c2ccccc21)OC(=O)CCCCCCCCCCCCCCCCC.O=C[O-]` [Cy3-DSPE], the “extravasation and migration area in tumor” value ([1]; p-value<0.0001) is reported as “mostly stayed in blood vessels”.

In the case of `CCCCCCCCCCCCCCCCCCN1C(=CC=CC=CC2=[N+](CCCCCCCCCCCCCCCCCC)c3ccccc3C2(C)C)C(C)(C)c2ccccc21.O=S(=O)([O-])c1ccc(Cl)cc1` [DiD], the “extravasation and migration area in tumor” value ([1]; p-value<0.0001) is reported as “extravasated and migrated over a significantly larger area than Cy3-DSPE”.

With `CCCCCCCCCCCCCCCCCCN1C(=CC=CC2=[N+](CCCCCCCCCCCCCCCCCC)c3ccccc3C2(C)C)C(C)(C)c2ccccc21.[O-][Cl+3]([O-])([O-])[O-]` [DiI] the “fluorescence positive area in tumor images” value ([1]; 4 h, 24 h and 48 h post-injection, EPC/DSPE-PEG2000 DiI/Cy5-DSPE liposomes, p-value<0.0001) was “significantly larger area than Cy5-DSPE”, the “extravasation and spreading in tumor” value ([1]; 24 h, 150 nm HSPC/Chol/DSPE-PEG2000 liposomes (DOXIL formula), 0.2% DiI and Cy5-DSPE) was “more efficient extravasation and spreading” and the “extravasation and distribution in tumor” value ([1]; 24 h post-injection, EPC/DSPE-PEG2000 liposomes, 0.2 mole % DiI and Cy5-DSPE, i.v.) was “efficiently extravasated and migrated throughout the tumor”. The extravasation in tumor [2] was “much better extravasation”, the “accumulation and spreading in glioma” value [3] was “accumulated and spread in tumors much more efficiently than Cy5-DSPE” and the “dye cleared from the circulation” value [4] was “approximately 80%”. The “fluorescence in liver images over time” value ([5]; livers, later time points versus 1 h) was “increase”, the “fluorescence in tumor images over time” value ([5]; tumors, 1 h, 24 h, 48 h post-injection) was “continued to increase at 24 h and 48 h” and the “tissues with the highest dye amount” value [6] was “highest in the tumor and liver”. The “dye amount in tumor and organ extracts over time” value ([6]; tumors, livers, spleens, kidneys, 1 h, 24 h) was “increase in all organs except the kidney over 48 h”, the “extravasation and accumulation in skin cells” value ([7]; mixed DiI/Cy5-DSPE liposomes, 4 days later) was “only DiI extravasated and accumulated in skin cells” and the skin extravasation ([7]; skin excised 4 days after injection, liposomes with Cy3-DSPE, LR-DOPE or DiI) was “more efficient extravasation than phospholipid dyes”.

`Nc1ccn([C@@H]2O[C@H](CO)[C@@H](O)[C@@H]2O)c(=O)n1` [cytarabine] gave an EC50 [8] of 65 nM.

In the case of `COc1cccc2c1C(=O)c1c(O)c3c(c(O)c1C2=O)C[C@@](O)(C(=O)CO)C[C@@H]3O[C@H]1C[C@H](N)[C@H](O)[C@H](C)O1` [doxorubicin], the “toxicity to glioma cells (IC50)” value [9] is listed as “nanomolar range”.

In the case of `CC(=O)O[C@H]1C(=O)[C@@]2(C)[C@H]([C@H](OC(=O)c3ccccc3)[C@]3(O)C[C@H](OC(=O)[C@H](O)[C@@H](NC(=O)c4ccccc4)c4ccccc4)C(C)=C1C3(C)C)[C@]1(OC(C)=O)CO[C@@H]1C[C@@H]2O` [paclitaxel], the “toxicity to glioma cells (IC50)” value [9] is given as “nanomolar range”.

— patent US20240299553A1, “INDOCARBOCYANINE LIPID DERIVATIVES FOR IN VIVO CARGO DELIVERY” (priority 2021, published 2024)
